Experiments:
[1] = Mouse lung ischemia-reperfusion injury (pulmonary hilum clamping): physiological and histopathological evaluation of pulmonary edema; format: in vivo, C57BL/6J mice
Description: GSSSG (MW 644) was dissolved in 0.1 M HCl to 25 mM GSSSG. Next, 20 µL of 25 mM GSSSG was added to 50 µL of 10x PBS and 430 µL of DW, and thus 500 µL of GSSSG solution (1 mM, 322 µg GSSSG) was adjusted in the end.
(§1) An intervention group (N = 4) in which 500 µL of the GSSSG solution was intraperitoneally administered to C57BL/6J mice (22 months old, male) an hour before pulmonary hilum clamping surgery and a control group (N = 4) in which 500 µL of normal saline solution (NSS) was intraperitoneally administered were set. The pulmonary hilum structure was clamped together for 60 minutes, and the IRI was evaluated an hour and a day after releasing clamping.
The wet to dry weight ratios were measured as physiological evaluation of pulmonary edema due to the IRI (N = 4 in each group).
The alveolar edema was scored, and the edema around the pulmonary arteries was quantified as histopathological evaluation of pulmonary edema due to the IRI (N = 6 in each group). The scoring was conducted according to the criteria below, and an average of 10 fields was calculated for each mouse. Regarding the edema around the pulmonary arteries, three to five pulmonary arteries per mouse were extracted, and an average of the area ratios of the pulmonary artery and the edema around the artery was calculated.
• 0 = no finding • 1 = finding in 1-25% • 2 = finding in 26-50% • 3 = finding in 51-75% • 4 = finding in 76-100%

IL10 = test: RT-PCR gene expression of inflammatory cytokines in lung tissue after IRI; format: in vivo, C57BL/6J mice; conditions: lung tissue after the IRI; GSSSG administration group vs control; FIG. 2
Description: as §1
(§2) The inflammation due to the IRI was evaluated with gene expression of inflammatory cytokines in lung tissue. The wet to dry weight ratios were evaluated with N = 4 in each group, and the other items were evaluated with N = 5-6 in each group.

IL1b = test: as above; format: in vivo, C57BL/6J mice; conditions: lung tissue after the IRI; GSSSG administration group vs control; FIG. 2
Description: as §1, §2

IL6 = test: as above; format: in vivo, C57BL/6J mice; conditions: lung tissue after the IRI; GSSSG administration group vs control; FIG. 2
Description: as §1, §2

TNFα = test: as above; format: in vivo, C57BL/6J mice; conditions: lung tissue after the IRI; GSSSG administration group vs control; FIG. 2
Description: as §1, §2

HeLa cells = test: Mitochondrial membrane potential, JC-10 staining; format: cell-based; conditions: GSSSG added to medium at 1 µM, 10 µM and 100 µM; 24 hours; even at a low concentration; FIG. 3
Description: HeLa cells were cultured in DMEM (low glucose) medium containing 10% FBS, and GSSSG was added to the medium at different concentrations (1 µM, 10 µM and 100 µM). The cells were stained with JC-10, which is a reagent for detecting mitochondrial membrane potential, after 24 hours and observed with a confocal microscope, and the fluorescent intensities were measured with a plate reader.

[2] = Rat isogeneic lung transplantation: ischemia-reperfusion injury after lung preservation; format: in vivo, Lewis rats; conditions: lung preservation solution containing 300 µM GSSSG, six hours at 4°C, an hour after the reperfusion, vs control group
Description: In the GSSSG group (n=3), ET-TU solution containing GSSSG was used as the lung preservation solution. The GSSSG concentration was 300 µM, at which GSSSG could be mixed into EP-TU while maintaining pH 7 in a preliminary experiment. In the control group (n=3), ET-TU solution was used as it was as the lung preservation solution. As the rats, Lewis rats (male, 13-18 weeks, 275-350 g) were used both as the donors and the recipients.
The left lung of a donor was preserved for six hours at 4°C using the lung preservation solution (EP-TU) and transplanted into the left lung of a recipient rat. After reperfusion for an hour after the lung transplantation, the right pulmonary hilum (pulmonary artery and vein/bronchus) was blocked, and the degree of ischemia-reperfusion injury of the left lung was evaluated. As indicators for ischemia-reperfusion injury, the weight gain of the grafted lung (weight after transplantation - weight before transplantation) and the arterial oxygen tension (PaO2) after blocking the right pulmonary hilum were used.

For N[C@@H](CCC(=O)N[C@@H](CSSSC[C@H](NC(=O)CC[C@H](N)C(=O)O)C(=O)NCC(=O)O)C(=O)NCC(=O)O)C(=O)O [GSSSG, glutathione trisulfide], the “edema around the pulmonary arteries” value ([1]; 500 µL GSSSG solution (1 mM) intraperitoneally an hour before clamping, area ratio of pulmonary artery and edema around it, vs control group, FIG. 1c) was “relief of pulmonary edema was observed”, the “score of alveolar edema” value ([1]; 500 µL GSSSG solution (1 mM) intraperitoneally an hour before clamping, histopathological evaluation, vs control group, FIG. 1b) was “relief of pulmonary edema was observed” and the “wet to dry weight ratio” value ([1]; 500 µL GSSSG solution (1 mM, 322 µg) intraperitoneally an hour before 60 min pulmonary hilum clamping, 22 months old male mice, an hour and a day after the IRI, vs control group (NSS), FIG. 1a) was “decreased with a significance”. For the same compound, the “gene expression of IL10” value (IL10) was “decreased with a significance”, the “gene expression of IL1b” value (IL1b) was “no difference was observed” and the “gene expression of IL6” value (IL6) was “decreased with a significance”. The “gene expression of TNFα” value (TNFα) was “no difference was observed”, the mitochondrial membrane potential (HeLa cells) was “increased with a significance” and the “arterial oxygen tension (PaO2) after blocking the right pulmonary hilum” value ([2]; FIG. 10A) was “improved”. The “weight gain of the grafted lung” value ([2]; FIG. 10B) was “decreased”.

Source: patent EP4582094A1, “ISCHEMIA-REPERFUSION INJURY INHIBITOR” (Tohoku University, priority 2022, dated 2024)
